Reference: patent US7855165B2, “Herbicide composition for paddy field” (Bayer Cropscience AG, priority 2007, dated 2010)
Where two headings read alike, the source gives them in different places.

Key:
[1] = test system: Cyperus serotinus Rottboel; experiment: Test Example 1: effect of the herbicide composition against paddy field weeds (pot test, green house); format: in vivo; conditions: Cyperus serotinus, 504 h, read-out: Herbicidal effect (%) CYPSE
Excerpt: (§1) • Component (a) (a-1): compound No. 1 (ref: the aforementioned Table A) • (a-2): compound No. 3 (same as above) • (a-3): compound No. 11 (same as above) • Component (b) the aforementioned (b-1)-(b-15) • Component (c) the aforementioned (c-1)-(c-3) <Preparation of Test Agents> • Carrier: Acetone 5 parts by weight • Surfactant: Benzyloxy polyglycol ether 1 part by weight The above-mentioned carrier and surfactant and 1 part by weight of active compounds (component (a) and component (b) or component (c)) are mixed and the obtained formulations are diluted with water to prepare the test agents of the prescribed chemicals amount (preparations).
(§2) In a green house, seeds or tubers of Monochoria vaginalis Presl, annual broad-leaves (Lindernia procumbens Philcox, Rotala indica Koehne, Elatine triandra Schk, Ammannia multiflora Roxb., etc.), Cyperus serotinus Rottboel, and Sagittaria pygmaea Miq were inoculated to paddy field soil filled in a 500 cm^2 pot and brought to a submerged condition of about 2-3 cm. At 1.5-2 leafstage of each weed prescribed diluted solution of preparation of each active compound and each herbicide in the following table was applied on water surface each singly or simultaneously. After the treatment, the submerged condition of 3 cm was maintained and the herbicidal effect was studied 3 weeks after the treatment. The herbicidal effect was evaluated as 100% in case of complete death and 0% in case of no effect.
(§3) In the tables, MOOVP represents Monochoria vaginalis Presl, BBBBB represents annual broad-leaves, CYPSE represents Cyperus serotinus Rottboel and SAGPY represents Sagittaria pygmaea Miq.

[2] = test system: Monochoria vaginalis Presl; experiment: as above; format: in vivo; conditions: Pontederia vaginalis, 504 h, read-out: Herbicidal effect (%) MOOVP
Excerpt: as §1, §2, §3

Sagittaria pygmaea Miq = experiment: as above; format: in vivo; conditions: Sagittaria pygmaea, 504 h, read-out: Herbicidal effect (%) SAGPY
Excerpt: as §1, §2, §3

[3] = as above; format: in vivo, annual broad-leaves; conditions: 504 h, read-out: Herbicidal effect (%) BBBBB
Excerpt: as §2, with “At 1.5-2 leafstage of each weed prescribed diluted solution of preparation of each active compound and each herbicide in the following table was applied on water surface each singly or simultaneously.” left out
as §3

[4] = 20 g/ha single, 3 weeks after treatment
[5] = 40 g/ha single, 3 weeks after treatment
[6] = 2.5 g/ha single, 3 weeks after treatment
[7] = 5 g/ha single, 3 weeks after treatment
[8] = 1.5 g/ha single, 3 weeks after treatment
[9] = 3 g/ha single, 3 weeks after treatment
[10] = 50 g/ha single, 3 weeks after treatment
[11] = 100 g/ha single, 3 weeks after treatment
[12] = 75 g/ha single, 3 weeks after treatment
[13] = 150 g/ha single, 3 weeks after treatment
[14] = 200 g/ha single, 3 weeks after treatment
[15] = 400 g/ha single, 3 weeks after treatment
[16] = 300 g/ha single, 3 weeks after treatment
[17] = 600 g/ha single, 3 weeks after treatment

SMILES: CC1=C(c2ccccc2)C(=O)N(C(C)(C)c2cc(Cl)cc(Cl)c2)CO1 [(b-10), oxaziclomefone]
- pest or weed control at 20 g/ha [1, 4]: 0%
- pest or weed control at 40 g/ha [1, 5]: 0%
- pest or weed control at 20 g/ha [2, 4]: 10%
- pest or weed control at 40 g/ha [2, 5]: 20%
- pest or weed control at 20 g/ha (Sagittaria pygmaea Miq; [4]): 0%
- pest or weed control at 40 g/ha (Sagittaria pygmaea Miq; [5]): 10%
- pest or weed control at 20 g/ha [3]: 40%
- pest or weed control at 40 g/ha [3]: 40%

SMILES: CCN(CC)C(=O)n1cnc(S(=O)(=O)c2c(C)cc(C)cc2C)n1 [(b-3), cafenstrole]
- pest or weed control at 75 g/ha [1]: 0%
- pest or weed control at 150 g/ha [1]: 70%
- pest or weed control at 75 g/ha [2]: 50%
- pest or weed control at 150 g/ha [2]: 60%
- pest or weed control at 75 g/ha (Sagittaria pygmaea Miq): 10%
- pest or weed control at 150 g/ha (Sagittaria pygmaea Miq): 10%
- pest or weed control at 75 g/ha [3]: 40%
- pest or weed control at 150 g/ha [3]: 50%

SMILES: COP(=S)(OC)SCC(=O)N(c1ccc(Cl)cc1)C(C)(C)C [(b-1), anilofos]
- pest or weed control at 100 g/ha [1]: 0%
- pest or weed control at 200 g/ha [1]: 0%
- pest or weed control at 100 g/ha [2]: 10%
- pest or weed control at 200 g/ha [2]: 10%
- pest or weed control at 100 g/ha (Sagittaria pygmaea Miq): 10%
- pest or weed control at 200 g/ha (Sagittaria pygmaea Miq): 10%
- pest or weed control at 100 g/ha [3]: 0%
- pest or weed control at 200 g/ha [3]: 0%

SMILES: COc1cc(OC)nc(Oc2cccc(Oc3nc(OC)cc(OC)n3)c2C(=O)O)n1 [(b-7), bispyribac-sodium]
- pest or weed control at 2.5 g/ha [1, 6]: 20%
- pest or weed control at 5 g/ha [1, 7]: 60%
- pest or weed control at 2.5 g/ha [2, 6]: 0%
- pest or weed control at 5 g/ha [2, 7]: 10%
- pest or weed control at 2.5 g/ha (Sagittaria pygmaea Miq; [6]): 0%
- pest or weed control at 5 g/ha (Sagittaria pygmaea Miq; [7]): 30%
- pest or weed control at 2.5 g/ha [3, 6]: 10%
- pest or weed control at 5 g/ha [3, 7]: 10%

SMILES: CCCCOC(=O)[C@@H](C)Oc1ccc(Oc2ccc(C#N)cc2F)cc1 [(b-4), cyhalofop-butyl]
- pest or weed control at 90 g/ha [1]: 0%
- pest or weed control at 180 g/ha [1]: 0%
- pest or weed control at 90 g/ha [2]: 0%
- pest or weed control at 180 g/ha [2]: 10%
- pest or weed control at 90 g/ha (Sagittaria pygmaea Miq): 10%
- pest or weed control at 180 g/ha (Sagittaria pygmaea Miq): 20%
- pest or weed control at 90 g/ha [3]: 0%
- pest or weed control at 180 g/ha [3]: 0%

SMILES: CCOc1ccccc1OS(=O)(=O)NC(=O)Nc1nc(OC)cc(OC)n1 [(b-13), ethoxysulfuron]
- pest or weed control at 1.5 g/ha [1, 8]: 0%
- pest or weed control at 3 g/ha [1, 9]: 0%
- pest or weed control at 1.5 g/ha [2, 8]: 65%
- pest or weed control at 3 g/ha [2, 9]: 70%
- pest or weed control at 1.5 g/ha (Sagittaria pygmaea Miq; [8]): 65%
- pest or weed control at 3 g/ha (Sagittaria pygmaea Miq; [9]): 65%
- pest or weed control at 1.5 g/ha [3, 8]: 40%
- pest or weed control at 3 g/ha [3, 9]: 70%

SMILES: COc1cnc(OC)n2nc(NS(=O)(=O)c3c(OCC(F)F)cccc3C(F)(F)F)nc12 [(b-5), penoxsulam]
- pest or weed control at 50 g/ha [1, 10]: 70%
- pest or weed control at 100 g/ha [1, 11]: 70%
- pest or weed control at 50 g/ha [2, 10]: 75%
- pest or weed control at 100 g/ha [2, 11]: 90%
- pest or weed control at 50 g/ha (Sagittaria pygmaea Miq; [10]): 65%
- pest or weed control at 100 g/ha (Sagittaria pygmaea Miq; [11]): 85%
- pest or weed control at 50 g/ha [3, 10]: 50%
- pest or weed control at 100 g/ha [3, 11]: 90%

SMILES: CS(=O)(=O)c1ccc(C(=O)C2C(=O)CCCC2=O)c(Cl)c1COCC1CCCO1 (stereo not shown) [(b-15), 2-{2-chloro-4-mesyl-3-[(tetrahydrofuran-2-ylmethoxy)-methyl]-benzoyl}-cyclohexan-1,3-dione]
- pest or weed control at 75 g/ha [1, 12]: 80%
- pest or weed control at 150 g/ha [1, 13]: 85%
- pest or weed control at 75 g/ha [2, 12]: 85%
- pest or weed control at 150 g/ha [2, 13]: 95%
- pest or weed control at 75 g/ha (Sagittaria pygmaea Miq; [12]): 80%
- pest or weed control at 150 g/ha (Sagittaria pygmaea Miq; [13]): 80%
- pest or weed control at 75 g/ha [3, 12]: 50%
- pest or weed control at 150 g/ha [3, 13]: 65%

SMILES: CC(C)(NC(=O)C(Br)C(C)(C)C)c1ccccc1 (stereo not shown) [(b-14), bromobutide]
- pest or weed control at 200 g/ha [1, 14]: 40%
- pest or weed control at 400 g/ha [1, 15]: 60%
- pest or weed control at 200 g/ha [2, 14]: 30%
- pest or weed control at 400 g/ha [2, 15]: 95%
- pest or weed control at 200 g/ha (Sagittaria pygmaea Miq; [14]): 10%
- pest or weed control at 400 g/ha (Sagittaria pygmaea Miq; [15]): 10%
- pest or weed control at 200 g/ha [3]: 20%
- pest or weed control at 400 g/ha [3]: 30%

SMILES: CN(C(=O)COc1nc2ccccc2s1)c1ccccc1 [(b-9), mefenacet]
- pest or weed control at 300 g/ha [1, 16]: 30%
- pest or weed control at 600 g/ha [1, 17]: 30%
- pest or weed control at 300 g/ha [2, 16]: 65%
- pest or weed control at 600 g/ha [2, 17]: 80%
- pest or weed control at 300 g/ha (Sagittaria pygmaea Miq; [16]): 10%
- pest or weed control at 600 g/ha (Sagittaria pygmaea Miq; [17]): 10%
- pest or weed control at 300 g/ha [3, 16]: 30%
- pest or weed control at 600 g/ha [3, 17]: 40%

SMILES: CCN(C(=O)n1nnn(-c2ccccc2Cl)c1=O)C1CCCCC1 [(b-8), fentrazamide]
- pest or weed control at 75 g/ha [1, 12]: 30%
- pest or weed control at 150 g/ha [1, 13]: 30%
- pest or weed control at 75 g/ha [2, 12]: 40%
- pest or weed control at 150 g/ha [2, 13]: 60%
- pest or weed control at 75 g/ha (Sagittaria pygmaea Miq; [12]): 30%
- pest or weed control at 150 g/ha (Sagittaria pygmaea Miq; [13]): 30%
- pest or weed control at 75 g/ha [3, 12]: 40%
- pest or weed control at 150 g/ha [3, 13]: 70%
